Tested on: 485176-168-R4-J1-PDC complex spheroid growth
Assay: Anticancer human tumor 485176-168-R4-J1-PDC patient-derived pancreatic adenocarcinoma cell line growth inhibition [RAS]
Conditions: for IC50: curve of first compound; for viability, T/C: stronger effect = lower value
Procedure, shortened: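 Multi-cell-type spheroids: tumor cells plus HUVEC endothelial cells and mesenchymal stem cells. RAS-pathway inhibitors were combined with targeted agents, each dosed in half-log steps down from clinical Cmax, or from 10 microM when Cmax was unknown.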

[1] = second compound 0.000949 µM, first compound 0.0316 µM
[2] = second compound 0.000949 µM, first compound 0.1 µM
[3] = second compound 0.000949 µM, first compound 0.316 µM
[4] = second compound 0.000949 µM, first compound 1 µM
[5] = second compound 0.003 µM, first compound 0.0316 µM
[6] = second compound 0.003 µM, first compound 0.1 µM
[7] = second compound 0.003 µM, first compound 0.316 µM
[8] = second compound 0.003 µM, first compound 1 µM
[9] = second compound 0.00949 µM, first compound 0.0316 µM
[10] = second compound 0.00949 µM, first compound 0.1 µM
[11] = second compound 0.00949 µM, first compound 0.316 µM
[12] = second compound 0.00949 µM, first compound 1 µM
[13] = second compound 0.03 µM, first compound 0.0316 µM
[14] = second compound 0.03 µM, first compound 0.1 µM
[15] = second compound 0.03 µM, first compound 0.316 µM
[16] = second compound 0.03 µM, first compound 1 µM
[17] = second compound 0.0949 µM, first compound 0.0316 µM
[18] = second compound 0.0949 µM, first compound 0.1 µM
[19] = second compound 0.0949 µM, first compound 0.316 µM
[20] = second compound 0.0949 µM, first compound 1 µM
[21] = second compound 0.3 µM, first compound 0.0316 µM
[22] = second compound 0.3 µM, first compound 0.1 µM
[23] = second compound 0.3 µM, first compound 0.316 µM
[24] = second compound 0.3 µM, first compound 1 µM
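Further: spheroids exposed to compounds for seven days before readout.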
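Wherever viability, T/C is given: luminescence viability expressed relative to DMSO vehicle wells set as 100%.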

Question: What does the source list for CC(=O)OC12COC1CC(O)C1(C)C(=O)C(O)C3=C(C)C(OC(=O)C(O)C(NC(=O)OC(C)(C)C)c4ccccc4)CC(O)(C(OC(=O)c4ccccc4)C21)C3(C)C (centres undefined) + CCn1c(-c2cccnc2C(C)OC)c2c3cc(ccc31)N1CCOC(CC(NC(=O)C(C(C)C)N(C)C(=O)C3(F)CCN(C(=O)C#CC(C)(C)N(C)C)CC3)C(=O)N3CCCC(N3)C(=O)OCC(C)(C)C2)C1?
Answer: IC50 (second compound 0.000949 µM): < 31.6 nM; IC50 (second compound 0.003 µM): < 31.6 nM; IC50 (second compound 0.00949 µM): < 31.6 nM; IC50 (second compound 0.03 µM): < 31.6 nM; IC50 (second compound 0.0949 µM): < 31.6 nM; IC50 (second compound 0.3 µM): < 31.6 nM; viability, T/C [1]: 13.4%; viability, T/C [2]: 13.8%; viability, T/C [3]: 13.9%; viability, T/C [4]: 10.7%; viability, T/C (second compound 0.000949 µM, first compound 3.16 µM): 13.2%; viability, T/C (second compound 0.000949 µM, first compound 10 µM): 17.7%; viability, T/C [5]: 15.3%; viability, T/C [6]: 12.7%; viability, T/C [7]: 12.2%; viability, T/C [8]: 14%; viability, T/C (second compound 0.003 µM, first compound 3.16 µM): 14.4%; viability, T/C (second compound 0.003 µM, first compound 10 µM): 16.7%; viability, T/C [9]: 15.4%; viability, T/C [10]: 14.8%; viability, T/C [11]: 12.1%; viability, T/C [12]: 11.9%; viability, T/C (second compound 0.00949 µM, first compound 3.16 µM): 15%; viability, T/C (second compound 0.00949 µM, first compound 10 µM): 17.6%; viability, T/C [13]: 14.9%; viability, T/C [14]: 12.4%; viability, T/C [15]: 11.1%; viability, T/C [16]: 10.3%; viability, T/C (second compound 0.03 µM, first compound 3.16 µM): 14.1%; viability, T/C (second compound 0.03 µM, first compound 10 µM): 16.8%; viability, T/C [17]: 11.2%; viability, T/C [18]: 10.4%; viability, T/C [19]: 8.86%; viability, T/C [20]: 9.58%; viability, T/C (second compound 0.0949 µM, first compound 3.16 µM): 13.1%; viability, T/C (second compound 0.0949 µM, first compound 10 µM): 16.4%; viability, T/C [21]: 11.5%; viability, T/C [22]: 9.61%; viability, T/C [23]: 7.21%; viability, T/C [24]: 9.28%; viability, T/C (second compound 0.3 µM, first compound 3.16 µM): 11.9%; viability, T/C (second compound 0.3 µM, first compound 10 µM): 16.4%

Question: For Nc1ccn(C2OC(CO)C(O)C2(F)F)c(=O)n1 (centres undefined) + CCn1c(-c2cccnc2C(C)OC)c2c3cc(ccc31)N1CCOC(CC(NC(=O)C(C(C)C)N(C)C(=O)C3(F)CCN(C(=O)C#CC(C)(C)N(C)C)CC3)C(=O)N3CCCC(N3)C(=O)OCC(C)(C)C2)C1, which IC50 (second compound 0.000949 µM) is on record?
Answer: 16.7 nM

Question: What about the IC50 (second compound 0.003 µM) of the same molecule?
Answer: 18.4 nM

Question: What about the IC50 (second compound 0.00949 µM) of the same molecule?
Answer: 15.6 nM

Question: And the IC50 (second compound 0.03 µM)?
Answer: 16.8 nM

Question: What about the IC50 (second compound 0.0949 µM) of the same molecule?
Answer: 14.1 nM

Question: What about the IC50 (second compound 0.3 µM) of the same molecule?
Answer: 12 nM

Question: What about the viability, T/C (second compound 0.000949 µM, first compound 0.00316 µM) of the same molecule?
Answer: 76.9%

Question: And the viability, T/C (second compound 0.000949 µM, first compound 0.01 µM)?
Answer: 79.7%

Question: And the viability, T/C [1]?
Answer: 15%

Question: What about the viability, T/C [2] of the same molecule?
Answer: 7.41%

Question: And the viability, T/C [3]?
Answer: 10.3%

Question: And the viability, T/C [4]?
Answer: 9.82%

Question: What about the viability, T/C (second compound 0.003 µM, first compound 0.00316 µM) of the same molecule?
Answer: 91.1%

Question: And the viability, T/C (second compound 0.003 µM, first compound 0.01 µM)?
Answer: 87.6%

Question: What about the viability, T/C [5] of the same molecule?
Answer: 16.5%

Question: And the viability, T/C [6]?
Answer: 7.59%

Question: What about the viability, T/C [7] of the same molecule?
Answer: 8.56%

Question: What about the viability, T/C [8] of the same molecule?
Answer: 11.9%

Question: And the viability, T/C (second compound 0.00949 µM, first compound 0.00316 µM)?
Answer: 87.6%

Question: And the viability, T/C (second compound 0.00949 µM, first compound 0.01 µM)?
Answer: 72.9%

Question: And the viability, T/C [9]?
Answer: 13.3%

Question: And the viability, T/C [10]?
Answer: 9.05%

Question: What about the viability, T/C [11] of the same molecule?
Answer: 9.37%

Question: What about the viability, T/C [12] of the same molecule?
Answer: 12.1%

Question: And the viability, T/C (second compound 0.03 µM, first compound 0.00316 µM)?
Answer: 91.4%

Question: And the viability, T/C (second compound 0.03 µM, first compound 0.01 µM)?
Answer: 79.9%

Question: And the viability, T/C [13]?
Answer: 13.5%

Question: And the viability, T/C [14]?
Answer: 8.42%

Question: And the viability, T/C [15]?
Answer: 8.07%

Question: What about the viability, T/C [16] of the same molecule?
Answer: 6.73%

Question: And the viability, T/C (second compound 0.0949 µM, first compound 0.00316 µM)?
Answer: 87.8%

Question: What about the viability, T/C (second compound 0.0949 µM, first compound 0.01 µM) of the same molecule?
Answer: 66.9%

Question: And the viability, T/C [17]?
Answer: 9.91%

Question: And the viability, T/C [18]?
Answer: 4.39%

Question: What about the viability, T/C [19] of the same molecule?
Answer: 7.38%

Question: And the viability, T/C [20]?
Answer: 6.23%

Question: And the viability, T/C (second compound 0.3 µM, first compound 0.00316 µM)?
Answer: 71.7%

Question: And the viability, T/C (second compound 0.3 µM, first compound 0.01 µM)?
Answer: 58%

Question: What about the viability, T/C [21] of the same molecule?
Answer: 8.51%

Question: And the viability, T/C [22]?
Answer: 3.06%

Question: What about the viability, T/C [23] of the same molecule?
Answer: 4.98%

Question: What about the viability, T/C [24] of the same molecule?
Answer: 5.37%

Source: PubChem BioAssay AID2060906 (Molecular Pharmacology Branch, DTP, NCI, 2025)
